Earlier results in patent publication EP1195160B1, “Sustained release trimetazidine pharmaceutical compositions and a method of their preparation” (USV Ltd., priority 2000, dated 2002).
Like-named read-outs stand apart in the source and are kept apart here.

How the values were obtained:
[1] = 20mg, single dose administration
[2] = value from the literature
[3] = oral, immediate release preparation
[4] = 80mg dose, prolonged release coated reservoir system of EP 0 673 649, 12 volunteers

## COc1ccc(CN2CCNCC2)c(OC)c1OC.Cl.Cl [Trimetazidine dihydrochloride, 1-(2,3,4-trimethoxybenzyl)-piperazine dihydrochloride]
[1]
  maximum plasma concentration Cmax: 53.6 ± 9.0 ng/mL
[2]
  Elimination half life t 1/2: t 1/2 = 6.0 hours.
  Plasma concentration Css: Css = 84ng/ml
  T max: T max = 1.8 ± 0.7 hours.
  Volume of distribution Vd: Vd = 294 litres.
[3]
  T max: around 1.8 ± 0.7 hours
  plasma half life: around 6.0 ± 1.4 hours
[4]
  steady state plasma concentration (Css): around 110 ng/ml
